Data published in PubChem BioAssay (NCI).
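Compound exposure: 48 hours, 5 concentrations, 96-well plates. At the GI50, growth is halved. TGI: total growth inhibition.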

Key:
Assay in all cases: NCI anticancer screen, dose series, 48 h; in the data active means GI50 below about 0.43 µM; inactive means the rest
CCRF-CEM leukemia = system: CCRF-CEM leukemia
HT29 colon = system: HT29 colon
SNB-19 CNS = system: SNB-19 CNS
U251 CNS = system: U251 CNS
MDA-MB-231 breast = system: MDA-MB-231 breast
UACC-62 melanoma = system: UACC-62 melanoma
BT-549 breast = system: BT-549 breast
SF-268 CNS = system: SF-268 CNS
HCC-2998 colon = system: HCC-2998 colon
SK-MEL-28 melanoma = system: SK-MEL-28 melanoma
SK-OV-3 ovarian = system: SK-OV-3 ovarian
COLO 205 colon = system: COLO 205 colon
HS 578T breast = system: HS 578T breast
LOX IMVI melanoma = system: LOX IMVI melanoma
EKVX NSCLC = system: EKVX NSCLC
OVCAR-5 ovarian = system: OVCAR-5 ovarian
ACHN renal = system: ACHN renal
KM12 colon = system: KM12 colon
A549 NSCLC = system: A549 NSCLC
CAKI-1 renal = system: CAKI-1 renal
NCI-H522 lung = system: NCI-H522 lung
SNB-75 CNS = system: SNB-75 CNS
OVCAR-8 ovarian = system: OVCAR-8 ovarian
786-0 renal = system: 786-0 renal
K-562 leukemia = system: K-562 leukemia
NCI-H460 lung = system: NCI-H460 lung
UACC-257 melanoma = system: UACC-257 melanoma
M14 melanoma = system: M14 melanoma
TK-10 renal = system: TK-10 renal
SF-295 CNS = system: SF-295 CNS
SN12C renal = system: SN12C renal
HCT-116 colon = system: HCT-116 colon
IGROV1 ovarian = system: IGROV1 ovarian
PC-3 prostate = system: PC-3 prostate
T-47D breast = system: T-47D breast
SK-MEL-5 melanoma = system: SK-MEL-5 melanoma
RXF 393 renal = system: RXF 393 renal
HOP-62 NSCLC = system: HOP-62 NSCLC
MCF7 breast = system: MCF7 breast
SK-MEL-2 melanoma = system: SK-MEL-2 melanoma
A498 renal = system: A498 renal
UO-31 renal = system: UO-31 renal
MOLT-4 leukemia = system: MOLT-4 leukemia
HOP-92 NSCLC = system: HOP-92 NSCLC
DU-145 prostate = system: DU-145 prostate
HCT-15 colon = system: HCT-15 colon
OVCAR-4 ovarian = system: OVCAR-4 ovarian
NCI-H23 lung = system: NCI-H23 lung
SF-539 CNS = system: SF-539 CNS
OVCAR-3 ovarian = system: OVCAR-3 ovarian
SW-620 colon = system: SW-620 colon
NCI/ADR-RES ovarian = system: NCI/ADR-RES ovarian
MDA-MB-435 = system: MDA-MB-435
MALME-3M melanoma = system: MALME-3M melanoma
NCI-H226 lung = system: NCI-H226 lung
HL-60(TB) leukemia = system: HL-60(TB) leukemia
SR leukemia = system: SR leukemia

CCc1c(O)cc(=O)oc1-c1ccc(OC)c(OC)c1
> 100 µM: TGI (CCRF-CEM leukemia) | TGI (HT29 colon) | TGI (SNB-19 CNS) | TGI (U251 CNS) | TGI (MDA-MB-231 breast) | TGI (UACC-62 melanoma) | TGI (BT-549 breast) | TGI (SF-268 CNS) | TGI (HCC-2998 colon) | TGI (SK-MEL-28 melanoma) | TGI (SK-OV-3 ovarian) | TGI (COLO 205 colon) | TGI (HS 578T breast) | TGI (LOX IMVI melanoma) | TGI (EKVX NSCLC) | TGI (OVCAR-5 ovarian) | TGI (ACHN renal) | TGI (KM12 colon) | TGI (A549 NSCLC) | TGI (CAKI-1 renal) | TGI (NCI-H522 lung) | TGI (SNB-75 CNS) | TGI (OVCAR-8 ovarian) | TGI (786-0 renal) | TGI (K-562 leukemia) | TGI (NCI-H460 lung) | TGI (UACC-257 melanoma) | TGI (M14 melanoma) | TGI (TK-10 renal) | TGI (SF-295 CNS) | TGI (SN12C renal) | TGI (HCT-116 colon) | TGI (IGROV1 ovarian) | TGI (PC-3 prostate) | TGI (T-47D breast) | TGI (SK-MEL-5 melanoma) | TGI (RXF 393 renal) | TGI (HOP-62 NSCLC) | TGI (MCF7 breast) | TGI (SK-MEL-2 melanoma) | TGI (A498 renal) | TGI (UO-31 renal) | TGI (MOLT-4 leukemia) | TGI (HOP-92 NSCLC) | TGI (DU-145 prostate) | TGI (HCT-15 colon) | TGI (OVCAR-4 ovarian) | TGI (NCI-H23 lung) | TGI (SF-539 CNS) | TGI (OVCAR-3 ovarian) | TGI (SW-620 colon) | TGI (NCI/ADR-RES ovarian) | TGI (MDA-MB-435)

COc1ccc(C(=O)c2cc(OC)c(OC)c(OC)c2OC)cc1O
7.65 µM: TGI (OVCAR-3 ovarian)
34.3 µM: TGI (COLO 205 colon)
7.09 µM: TGI (NCI/ADR-RES ovarian)
9.82 µM: TGI (HL-60(TB) leukemia)
5.77 µM: TGI (SNB-75 CNS)
> 100 µM: TGI (HT29 colon) | TGI (SNB-19 CNS) | TGI (U251 CNS) | TGI (MDA-MB-231 breast) | TGI (UACC-62 melanoma) | TGI (BT-549 breast) | TGI (SF-268 CNS) | TGI (SK-MEL-28 melanoma) | TGI (HS 578T breast) | TGI (LOX IMVI melanoma) | TGI (EKVX NSCLC) | TGI (OVCAR-5 ovarian) | TGI (ACHN renal) | TGI (KM12 colon) | TGI (A549 NSCLC) | TGI (MALME-3M melanoma) | TGI (OVCAR-8 ovarian) | TGI (786-0 renal) | TGI (NCI-H460 lung) | TGI (UACC-257 melanoma) | TGI (M14 melanoma) | TGI (TK-10 renal) | TGI (SN12C renal) | TGI (HCT-116 colon) | TGI (IGROV1 ovarian) | TGI (PC-3 prostate) | TGI (T-47D breast) | TGI (SK-MEL-5 melanoma) | TGI (NCI-H226 lung) | TGI (HOP-62 NSCLC) | TGI (MCF7 breast) | TGI (SK-MEL-2 melanoma) | TGI (A498 renal) | TGI (UO-31 renal) | TGI (SR leukemia) | TGI (MOLT-4 leukemia) | TGI (HOP-92 NSCLC) | TGI (DU-145 prostate) | TGI (HCT-15 colon) | TGI (OVCAR-4 ovarian) | TGI (NCI-H23 lung) | TGI (SW-620 colon)
7.44 µM: TGI (NCI-H522 lung)
inactive: GI50 (HT29 colon) 3.8 µM | GI50 (SNB-19 CNS) 4.49 µM | GI50 (U251 CNS) 3.61 µM | GI50 (MDA-MB-231 breast) 5.82 µM | GI50 (UACC-62 melanoma) 4.3 µM | GI50 (BT-549 breast) 5.52 µM | GI50 (SF-268 CNS) 4.19 µM | GI50 (HCC-2998 colon) 6.15 µM | GI50 (SK-MEL-28 melanoma) 6.42 µM | GI50 (SK-OV-3 ovarian) 3.33 µM | GI50 (COLO 205 colon) 8.27 µM | GI50 (HS 578T breast) 3.41 µM | GI50 (LOX IMVI melanoma) 4.95 µM | GI50 (EKVX NSCLC) 28.6 µM | GI50 (OVCAR-5 ovarian) 17.5 µM | GI50 (ACHN renal) 8.94 µM | GI50 (KM12 colon) 2.91 µM | GI50 (A549 NSCLC) 5.4 µM | GI50 (CAKI-1 renal) 2.21 µM | GI50 (MALME-3M melanoma) 4.49 µM | GI50 (NCI-H522 lung) 2.37 µM | GI50 (SNB-75 CNS) 1.69 µM | GI50 (OVCAR-8 ovarian) 4.06 µM | GI50 (786-0 renal) 4.35 µM | GI50 (NCI-H460 lung) 3.59 µM | GI50 (UACC-257 melanoma) 4.75 µM | GI50 (M14 melanoma) 3.1 µM | GI50 (TK-10 renal) 52.8 µM | GI50 (SF-295 CNS) 1.94 µM | GI50 (SN12C renal) 6.64 µM | GI50 (HCT-116 colon) 3.98 µM | GI50 (IGROV1 ovarian) 7.5 µM | GI50 (PC-3 prostate) 4.06 µM | GI50 (T-47D breast) 4.64 µM | GI50 (SK-MEL-5 melanoma) 2.93 µM | GI50 (NCI-H226 lung) 20.5 µM | GI50 (HOP-62 NSCLC) 4.14 µM | GI50 (MCF7 breast) 3.83 µM | GI50 (SK-MEL-2 melanoma) 4.28 µM | GI50 (HL-60(TB) leukemia) 2.77 µM | GI50 (A498 renal) 6.31 µM | GI50 (UO-31 renal) 5.02 µM | GI50 (SR leukemia) 0.61 µM | GI50 (MOLT-4 leukemia) 4.56 µM | GI50 (HOP-92 NSCLC) 4.73 µM | GI50 (DU-145 prostate) 4.64 µM | GI50 (HCT-15 colon) 3.48 µM | GI50 (OVCAR-4 ovarian) 6.14 µM | GI50 (NCI-H23 lung) 3.71 µM | GI50 (SF-539 CNS) 3.05 µM | GI50 (OVCAR-3 ovarian) 2.83 µM | GI50 (SW-620 colon) 2.99 µM | GI50 (NCI/ADR-RES ovarian) 1.97 µM
90.1 µM: TGI (SK-OV-3 ovarian)
5.18 µM: TGI (SF-295 CNS)
6.28 µM: TGI (CAKI-1 renal)
8.96 µM: TGI (SF-539 CNS)
65.1 µM: TGI (HCC-2998 colon)
